Experimental data from patent US10890591B2, “Methods and dose packs for monitoring medication adherence” (Synapse Biosciences, LLC, priority 2016, dated 2021).

What was measured:
clinical [1] = details: human, in vivo
Text: (§1) All other markers were obtained from commercial sources. Urine and saliva were collected prior to each day's dosing of marker confirming the presence or absence of markers before the experiment started. […] The presence of all 7 markers at day 8 would confirm that all markers were ingested in the previous 7 day one week period.
(§2) Healthy volunteers with no recent exposure to the markers who were not currently taking prescribed medications, OTC medications or vitamins and supplements were chosen. Exposure to the markers more than one month before starting the experiment was allowed and no dietary restrictions were required. Subjects were given a 7 day blister pack with markers sequenced in the order above. Subjects verbally confirmed they understood the urine and saliva collection procedures. Instructions printed on the marker blister pack instructed subjects to collect urine and saliva each morning before they took the daily dose of marker. They were also instructed to take the daily dose of marker close to the same time each day.

clinical [2] = details: human, in vivo; remark: listed apart in the source
Text: as §1, §2

With `CNC(=C[N+](=O)[O-])NCCSCc1ccc(CN(C)C)o1` [Ranitidine] the “Subject C, Urine Results” value (clinical [1]; 1 day) was 0 ng/m, the “Subject D, Urine Results” value (clinical [1]; 1 day) was 0 ng/m and the “Subject C, Urine Results” value (clinical [1]; 2 day) was 4930 ng/m. The “Subject D, Urine Results” value (clinical [1]; 2 day) was 4910 ng/m, the “Subject C, Urine Results” value (clinical [1]; 3 day) was 492 ng/m and the “Subject D, Urine Results” value (clinical [1]; 3 day) was 300 ng/m. The “Subject C, Urine Results” value (clinical [1]; 4 day) was 68.3 ng/m, the “Subject D, Urine Results” value (clinical [1]; 4 day) was 51.5 ng/m and the “Subject C, Urine Results” value (clinical [1]; 5 day) was 41.9 ng/m. For the same compound, the “Subject D, Urine Results” value (clinical [1]; 5 day) was 39.4 ng/m, the “Subject C, Urine Results” value (clinical [1]; 6 day) was 39.6 ng/m and the “Subject D, Urine Results” value (clinical [1]; 6 day) was 22.6 ng/m. For the same compound, the “Subject C, Urine Results” value (clinical [1]; 7 day) was 25.2 ng/m, the “Subject D, Urine Results” value (clinical [1]; 7 day) was 14 ng/m and the “Subject C, Urine Results” value (clinical [1]; 8 day) was 23.5 ng/m. The “Subject D, Urine Results” value (clinical [1]; 8 day) was 12.1 ng/m, the concentration at 1 day (clinical [1]; Average of Urine Samples) was 0 ng/mL and the concentration at 2 day (clinical [1]; Average of Urine Samples) was 3720 ng/mL. It also gave a concentration at 3 day (clinical [1]; Average of Urine Samples) of 351 ng/mL, a concentration at 4 day (clinical [1]; Average of Urine Samples) of 56.5 ng/mL and a concentration at 5 day (clinical [1]; Average of Urine Samples) of 40.7 ng/mL. The concentration at 6 day (clinical [1]; Average of Urine Samples) was 34.3 ng/mL, the concentration at 7 day (clinical [1]; Average of Urine Samples) was 13.9 ng/mL and the concentration at 8 day (clinical [1]; Average of Urine Samples) was 10.4 ng/mL. It also gave a concentration at 1 day (clinical [1]; Subject A, Urine Results) of 0 ng/mL, a concentration at 2 day (clinical [1]; Subject A, Urine Results) of 801 ng/mL and a concentration at 3 day (clinical [1]; Subject A, Urine Results) of 156 ng/mL. It also gave a concentration at 4 day (clinical [1]; Subject A, Urine Results) of 63.4 ng/mL, a concentration at 5 day (clinical [1]; Subject A, Urine Results) of 61.8 ng/mL and a concentration at 6 day (clinical [1]; Subject A, Urine Results) of 58.5 ng/mL. For the same compound, the concentration at 7 day (clinical [1]; Subject A, Urine Results) was 11.2 ng/mL, the concentration at 8 day (clinical [1]; Subject A, Urine Results) was 1.16 ng/mL and the concentration at 1 day (clinical [1]; Subject B, Urine Results) was 0 ng/mL. It also gave a concentration at 3 day (clinical [1]; Subject B, Urine Results) of 456 ng/mL, a concentration at 1 day (clinical [2]) of 0 ng/mL and a concentration at 2 day (clinical [2]) of 16.8 ng/mL. It also gave a concentration at 3 day (clinical [2]) of 1.56 ng/mL, a concentration at 4 day (clinical [2]) of 0.562 ng/mL and a concentration at 5 day (clinical [2]) of 0.366 ng/mL. The concentration at 6 day (clinical [2]) was 0.176 ng/mL, the concentration at 7 day (clinical [2]) was 0.0757 ng/mL and the concentration at 8 day (clinical [2]) was 0.048 ng/mL.

In the case of `Cc1cc2nc3c(=O)[nH]c(=O)nc-3n(C[C@H](O)[C@H](O)[C@H](O)CO)c2cc1C` [Riboflavin], the “Subject C, Urine Results” value (clinical [1]; 1 day) is reported as 1210 ng/m, the “Subject D, Urine Results” value (clinical [1]; 1 day) is reported as 819 ng/m and the “Subject C, Urine Results” value (clinical [1]; 2 day) is reported as 4940 ng/m. The “Subject D, Urine Results” value (clinical [1]; 2 day) was 1290 ng/m, the “Subject C, Urine Results” value (clinical [1]; 3 day) was 3150 ng/m and the “Subject D, Urine Results” value (clinical [1]; 3 day) was 5190 ng/m. The “Subject C, Urine Results” value (clinical [1]; 4 day) was 3150 ng/m, the “Subject D, Urine Results” value (clinical [1]; 4 day) was 4330 ng/m and the “Subject C, Urine Results” value (clinical [1]; 5 day) was 1230 ng/m. For the same compound, the “Subject D, Urine Results” value (clinical [1]; 5 day) was 1730 ng/m, the “Subject C, Urine Results” value (clinical [1]; 6 day) was 1680 ng/m and the “Subject D, Urine Results” value (clinical [1]; 6 day) was 2120 ng/m. The “Subject C, Urine Results” value (clinical [1]; 7 day) was 4450 ng/m, the “Subject D, Urine Results” value (clinical [1]; 7 day) was 3200 ng/m and the “Subject C, Urine Results” value (clinical [1]; 8 day) was 9920 ng/m. The “Subject D, Urine Results” value (clinical [1]; 8 day) was 3310 ng/m, the concentration at 1 day (clinical [1]; Average of Urine Samples) was 2240 ng/mL and the concentration at 2 day (clinical [1]; Average of Urine Samples) was 2490 ng/mL. The concentration at 3 day (clinical [1]; Average of Urine Samples) was 2960 ng/mL, the concentration at 4 day (clinical [1]; Average of Urine Samples) was 5130 ng/mL and the concentration at 5 day (clinical [1]; Average of Urine Samples) was 2110 ng/mL. For the same compound, the concentration at 6 day (clinical [1]; Average of Urine Samples) was 2270 ng/mL, the concentration at 7 day (clinical [1]; Average of Urine Samples) was 3100 ng/mL and the concentration at 8 day (clinical [1]; Average of Urine Samples) was 5710 ng/mL. It also gave a concentration at 3 day (clinical [1]; Subject B, Urine Results) of 3040 ng/mL, a concentration at 1 day (clinical [2]) of 85.5 ng/mL and a concentration at 2 day (clinical [2]) of 92 ng/mL. The concentration at 3 day (clinical [2]) was 58.2 ng/mL, the concentration at 4 day (clinical [2]) was 45.5 ng/mL and the concentration at 5 day (clinical [2]) was 37.3 ng/mL. It also gave a concentration at 6 day (clinical [2]) of 85.5 ng/mL, a concentration at 7 day (clinical [2]) of 40.8 ng/mL and a concentration at 8 day (clinical [2]) of 43.1 ng/mL.
